The text below walks through data of PubChem BioAssay (NCI).

Values joined by “and” are separate entries in the source; they are usually repeats but may differ in a detail not shown here. Equal entries are not always repeated.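 Cells were grown in 96-well plates and exposed to each compound for 48 hours at five concentrations; endpoints were interpolated linearly between bracketing concentrations, or set to the highest concentration if not reached. At the GI50, growth is halved. TGI: concentration producing complete growth inhibition.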

Some test systems named below: SK-MEL-28 melanoma; M14 melanoma; RXF 393 renal; A549 NSCLC; IGROV1 ovarian; OVCAR-4 ovarian; K-562 leukemia; RPMI-8226 leukemia; OVCAR-8 ovarian; SN12C renal; MDA-N.
Holding throughout (test): inhibition of tumour cell growth, NCI panel, 48 h

On to `C=C(C)[C@@]12C[C@H](OC(=O)[C@H](O)[C@@H](NC(=O)c3ccccc3)c3ccccc3)C(C)=C1[C@@H](OC(C)=O)C(=O)[C@@]1(C)C([C@@H]2OC(=O)c2cc(F)cc(F)c2)C2(OC(C)=O)CO[C@@H]2C[C@@H]1O` (stereo partly specified), for which the TGI in the assay with SK-MEL-28 melanoma was greater than 10 µM; in the assay with M14 melanoma, greater than 10 µM; with RXF 393 renal, 0.582 µM; in the assay with A549 NSCLC, greater than 6.61 µM; with IGROV1 ovarian, greater than 10 µM; in the assay with OVCAR-4 ovarian it was greater than 10 µM. The TGI was greater than 6.66 µM in the assay on K-562 leukemia, 0.547 µM in the assay with RPMI-8226 leukemia, greater than 4.03 µM in the assay on OVCAR-8 ovarian and greater than 4.51 µM in the assay with SN12C renal.
Turning to `CC1=C(O)C(=O)C2C(=O)C1C(C)C2c1ccccc1` (stereo unspecified), the TGI in the assay with SK-MEL-28 melanoma, in the assay with M14 melanoma, in the assay with RXF 393 renal, in the assay on A549 NSCLC, with IGROV1 ovarian and with OVCAR-4 ovarian was greater than 100 µM in each case. Moreover, the TGI with K-562 leukemia, in the assay with RPMI-8226 leukemia and with OVCAR-8 ovarian was greater than 100 µM each time.
Regarding `O=C([O-])c1ccccc1Nc1ccccc1C(=O)[O-].[OH3+].[Zn+2]`, the TGI in the assay on SK-MEL-28 melanoma is 40.7 µM; in the assay with M14 melanoma it was greater than 100 µM; in the assay on RXF 393 renal, 42.7 µM; in the assay with A549 NSCLC, greater than 100 µM; in the assay with IGROV1 ovarian it was 18.8 µM; in the assay on OVCAR-4 ovarian, 39.1 µM. The TGI is 88.7 µM in the assay on K-562 leukemia, greater than 100 µM with RPMI-8226 leukemia, greater than 66.4 µM in the assay with OVCAR-8 ovarian and greater than 100 µM in the assay with SN12C renal.
On to `[N-]=[N+]=C1C(=O)C2CC3CC1CC2C3` (stereo unspecified), for which the TGI in the assay with SK-MEL-28 melanoma, in the assay with M14 melanoma, with RXF 393 renal, in the assay on A549 NSCLC, in the assay with IGROV1 ovarian and with OVCAR-4 ovarian was greater than 100 µM in each case. For the same compound, the TGI in the assay with K-562 leukemia, with RPMI-8226 leukemia, with OVCAR-8 ovarian and in the assay with SN12C renal was greater than 100 µM throughout.
Turning to `COC1CC(O[C@H]2CC[C@@]3(C)C(=CCC4(O)C3CCC35C(=O)OC6(C)O[C@@]43CCC65)C2)OC(C)C1O` (stereo partly specified), the TGI in the assay with SK-MEL-28 melanoma, with M14 melanoma, in the assay with RXF 393 renal, in the assay on A549 NSCLC, in the assay on IGROV1 ovarian and in the assay on OVCAR-4 ovarian was greater than 100 µM each time. Also, the TGI with K-562 leukemia, in the assay with RPMI-8226 leukemia, in the assay with OVCAR-8 ovarian and in the assay on SN12C renal was greater than 100 µM in each case.
`CO/S(=N/S(=O)(=O)c1ccccc1)c1ccccc1[N+](=O)[O-]` (stereo unspecified): the TGI in the assay on SK-MEL-28 melanoma, in the assay on M14 melanoma, in the assay with A549 NSCLC, in the assay with IGROV1 ovarian, with OVCAR-4 ovarian and in the assay with K-562 leukemia was greater than 100 µM in each case. For the same compound, the TGI in the assay with RPMI-8226 leukemia, in the assay with OVCAR-8 ovarian and with SN12C renal was greater than 100 µM each time.
`O=CC1=CCCN(CCc2c[nH]c3ccccc23)C1`: the TGI in the assay with SK-MEL-28 melanoma is 41.1 µM; in the assay with RXF 393 renal, 85.8 µM; with A549 NSCLC it was greater than 393 µM; in the assay with IGROV1 ovarian, 176 µM; in the assay with K-562 leukemia it was greater than 393 µM; in the assay on RPMI-8226 leukemia, greater than 393 µM. Besides, the TGI with OVCAR-8 ovarian is 206 µM; in the assay with SN12C renal, 109 µM.
As to `COc1ccc2c(c1)C(=O)c1c-2n(CCCN=[N+]=[N-])c(=O)c2cc([N+](=O)[O-])ccc12`, the GI50 is 15.1 µM in the assay with SK-MEL-28 melanoma; 0.00139 µM in the assay on RXF 393 renal; 0.0782 µM and 0.0653 µM in the assay with K-562 leukemia; 0.0128 µM and 0.0101 µM in the assay with RPMI-8226 leukemia; 0.314 µM with SN12C renal. Besides, the TGI in the assay on SK-MEL-28 melanoma was greater than 100 µM; in the assay on M14 melanoma, 1.3 µM; in the assay on A549 NSCLC, greater than 100 µM; in the assay on K-562 leukemia, 16.3 µM; with RPMI-8226 leukemia, 0.264 µM and 1.35 µM; with OVCAR-8 ovarian, greater than 100 µM. The compound further came in with a TGI in the assay with SN12C renal of 2.01 µM.
On to `O=c1c2ccccc2ncn1COCc1ccccc1`, for which the TGI in the assay with SK-MEL-28 melanoma, in the assay on M14 melanoma, in the assay with RXF 393 renal, in the assay on A549 NSCLC, with IGROV1 ovarian and in the assay with OVCAR-4 ovarian was greater than 100 µM each time. In addition, the TGI in the assay on K-562 leukemia and with OVCAR-8 ovarian was greater than 100 µM in each case.
As to `CSc1nc2nccnc2c(=O)[nH]1`, the TGI in the assay on SK-MEL-28 melanoma, with M14 melanoma, with RXF 393 renal, with A549 NSCLC, in the assay with IGROV1 ovarian and with OVCAR-4 ovarian was greater than 100 µM throughout. The TGI in the assay with K-562 leukemia, in the assay on RPMI-8226 leukemia, with OVCAR-8 ovarian and in the assay on SN12C renal was greater than 100 µM in each case.
On to `CCSC1=N/C(=C\c2ccco2)C(Nc2ccc(C)cc2)=N1`, for which the TGI in the assay with SK-MEL-28 melanoma, in the assay with M14 melanoma, in the assay on A549 NSCLC, in the assay on IGROV1 ovarian, in the assay on MDA-N and with K-562 leukemia was greater than 100 µM throughout. Also, the TGI in the assay on RPMI-8226 leukemia, in the assay with OVCAR-8 ovarian and with SN12C renal was greater than 100 µM in each case.
In the case of `CC1CN=C(N(C(=O)Nc2ccc(Cl)cc2)c2cccc(Cl)c2)S1` (stereo unspecified), the TGI in the assay with SK-MEL-28 melanoma, in the assay on M14 melanoma, in the assay with A549 NSCLC, with IGROV1 ovarian, in the assay on OVCAR-4 ovarian and in the assay on MDA-N was greater than 100 µM each time. Moreover, the results for the TGI in the assay with OVCAR-8 ovarian and with SN12C renal were greater than 100 µM and 83.9 µM, respectively.
Take `CC1=C(C(=O)O)N2C(=O)[C@@H](NC(=O)C(c3ccccc3)N3CSC(=S)N(C(C)C)C3)C2SC1` (stereo partly specified): the TGI in the assay on SK-MEL-28 melanoma, in the assay with M14 melanoma, in the assay on IGROV1 ovarian, in the assay on OVCAR-4 ovarian, in the assay with K-562 leukemia and with RPMI-8226 leukemia was greater than 100 µM in each case. In addition, the TGI with OVCAR-8 ovarian and with SN12C renal was greater than 100 µM each time.
On to `COc1nc2c(c(=O)[nH]1)N=C(c1ccccc1)CC(c1ccccc1)N2` (stereo unspecified), for which the TGI is greater than 100 µM in the assay on SK-MEL-28 melanoma; greater than 100 µM in the assay on M14 melanoma; 71.7 µM in the assay on RXF 393 renal; greater than 100 µM in the assay on A549 NSCLC; greater than 100 µM in the assay on IGROV1 ovarian; 81.4 µM with OVCAR-4 ovarian. The TGI in the assay with K-562 leukemia is 60.3 µM; with RPMI-8226 leukemia, 75 µM; in the assay with OVCAR-8 ovarian, greater than 100 µM; in the assay on SN12C renal, greater than 100 µM.
